Source: patent US20170307610A1, “COMPOUNDS THAT BIND DYSTROGLYCAN AND USES THEREOF” (OREGON HEALTH & SCIENCE UNIVERSITY, priority 2014, published 2017)

System: E3D1 MECs
Experiment: Steady-state laminin internalization, flow cytometry
Assay type: cell-based, mouse
Settings: steady-state, continuous Rhod-Ln
Experimental: Endocytic internalization of laminin was confirmed by multiple methods. Laminin was labeled with the pH-sensitive fluorescent label CypHer-5 (CyPher-Ln) to exclusively image internalized laminin in attached, living cells. The fluorophore CypHer-5 is non fluorescent at pH 7.4 and maximally fluorescent at pH 5.5, permitting fluorescence detection of laminin within intracellular acidic vesicles (pH 4.8-6.0). Following overnight incubation of MECs with CypHer-Ln, live cell imaging detected bright fluorescent vesicles moving rapidly within the cytoplasm (FIG. 3A). Intracellular laminin within the cytoplasm was also independently observed via removal of surface bound laminin followed by confocal imaging. MECs were exposed to 10 μg/ml Rhod-Ln for 18 hrs, trypsinized, washed with PBS/EDTA to remove surface-bound laminin, allowed to re-attach, and stained with the membrane marker FITC-concanavalin A (conA). […] This method of cell treatment permitted a quantitative, flow cytometry-based assay of laminin internalization. In this assay, cells incubated with Rhod-Ln were trypsinized, washed (as in FIG. 3B), and the remaining internal Rhod-Ln fluorescence quantified by flow cytometry. Using this assay, laminin internalization was confirmed in diverse cell types including in primary mammary epithelial cultures, mammary epithelial cell lines (E3D1, MEpG), […] fibroblasts (NIH 3T3 cells), primary astrocytes, and human cancer cell lines (breast and glioma).
To explore the dynamics of laminin internalization, steady-state time course experiments (measuring internalization in the continuous presence of labeled laminin) and pulsed time course experiments were performed. In pulsed time course experiments, the cells were exposed to exogenous Rhod-Ln at 4° C. to prevent internalization, excess unbound Rhod-Ln was washed away, and then cells were returned to 37° C. to allow synchronized internalization and trafficking to proceed. […] Following pulsed and synchronized laminin exposure, Rhod-Ln was again observed to internalize within 1 hour, but reached a maximum at 8 hours, after which the levels of internal laminin declined (FIG. 4A). After 24 hours, internal Rhod-Ln levels declined to ˜37% of the maxima, indicating degradation (MFI: 315±3.5 to 119±11.5). To determine if laminin was degraded using classical degradation pathways, pulsed time course experiments in the presence of leupeptin (lysosome inhibitor) or […] (proteasome inhibitor) were performed.
Laminin internalization could be mediated by either receptor-dependent or receptor independent mechanisms (e.g. pinocytosis). Steady-state laminin internalization was measured using flow cytometry in the presence of potential inhibitors and compared to internalization of 500S FITC-dextran, a molecule of similar molecular size to laminin known to be endocytosed by receptor-independent mechanisms. The specific inhibitor of dynamin, dynasore (Macia E et al, Dev Cell, 839-850 (2006); incorporated by reference herein), inhibited internalization of laminin by >75% (FIG. 6A). Under hypertonic sucrose, a condition known to inhibit receptor-mediated endocytosis (Heuser J E and Anderson R G, J Cell Biol 108, 389-400 (1989); incorporated by reference herein) laminin internalization was reduced by 65% (FIG. 6A). Addition of heparin, a molecule known to bind the laminin LG4-5 domain (Harrison D et al, J Biol Chem 282, 11573-11581 (2007); incorporated by reference herein), decreased laminin internalization by 69% relative to controls (FIG. 6A). […] Specifically, under steady state, laminin internalization was nearly linear throughout the 24 hour time course, whereas dextran internalization plateaued after 16 hrs.
Flow Cytometry—Cells were plated in 12 well plates at 200,000 cells/well. The following day, media was changed to serum-free media with or without 10 μg/ml rhodamine laminin or 40 μg/ml FITC-dextran (500S-Sigma-Aldrich Corp., St. Louis, Mo., USA). […]

What does the source list for “Rhod-Ln: laminin-111 labeled with NHS-rhodamine; dystroglycan binding reagent”?
time at which internalized laminin was measurable: ≤ 1 h; time to plateau of laminin internalization: > 30 h
